Results published in patent publication US7645720B2, “Extreme environment surfactant compositions comprising hydrolysis resistant organomodified disiloxane surfactants” (Momentive Performance Materials Inc., priority 2005, dated 2010).
Blank lines part the entries; values can stand above or below the compound they belong to.

Key:
Format in all cases: physicochemical
[1] = Surface tension (Kruss surface tensiometer); conditions: 0.1 wt % in 0.005M NaCl water
Method: Surface tension was measured using a Kruss surface tensiometer, with a sand blasted platinum blade as the sensor. Solutions of the various components were prepared at 0.1 wt % in 0.005M NaCl water (Deionized), as an equilibrium aid.

[2] = Spreading of 10 μL droplet on polyacetate film; conditions: 30 seconds
Method: (§1) Spreading was determined by applying a 10 μL droplet, of surfactant solution to polyacetate film (USI, “Crystal Clear Write on Film”) and measuring the spread diameter (mm) after 30 seconds, at a relative humidity between 50 and 70% (at 22 to 25° C.). The solution was applied with an automatic pipette to provide droplets of reproducible volume. Deionized water that was further purified with a Millipore filtration system was used to prepare the surfactant solutions.

[3] = Hydrolytic stability by HPLC
[4] = Hydrolytic stability by HPLC; conditions: 0.5 wt %
Method: Hydrolytic stability was determined for representative compositions of the present invention using HPLC. Solutions of the various compositions were prepared at 0.5 wt % over a pH range from pH 4 to pH 12, and monitored by HPLC for decomposition as a function of time.
• Detector: ELSD/LTA (Evaporative Light Scattering with Low Temperature Adapter • Conditions: 30° C., 1.95 SLPM N2 • Column: Phenomenex LUNA C18 end cap, 5 micron, 75×4.6 mm • Flow Rate: 1.0 mL/min. • Inj. Volume: 10 microliters • Sample: 0.050 g/mL in methanol

[5] = Spreading properties vs time at set pH (resistance to hydrolysis); conditions: 0.4 wt %
Method: as §1
Therefore solutions of the organomodified disiloxane surfactants of the present invention, as well as comparative surfactants were prepared at desired use levels and pH. Spreading was determined as a function of time to illustrate resistance to hydrolysis. […]
Solutions (0.4 wt %) of the surfactants were prepared at pH 4 and pH 5 and spreading properties were observed over time. The test conditions are outlined in Example 8.

Compound: C[Si](C)(CCCOCCOCCOCCOCCOCCOCCOCCOCCOCCOCCOCCO)O[Si](C)(C)C1CC2CC1C1C=CCC21 (stereo not shown) [Comparative D, reference compound]
Surface Tension [1]: 32.7 mN/m
Stability: % Siloxane Surfactant Remaining ([3]; pH 4, 48 h, 0.5 wt %): 82%
Stability: % Siloxane Surfactant Remaining ([3]; pH 4, 9 days, 0.5 wt %): 44%
Stability: % Siloxane Surfactant Remaining ([3]; pH 7, 9 days, 0.5 wt %): 99%
Stability: % Siloxane Surfactant Remaining ([3]; pH 9, 9 days, 0.5 wt %): 99%
Stability: % Siloxane Surfactant Remaining ([3]; pH 10, 48 h, 0.5 wt %): >95%
Stability: % Siloxane Surfactant Remaining ([3]; pH 10, 9 days, 0.5 wt %): 99%
Spread Diameter ([2]; 0.1%): 7 mm
Spread Diameter ([2]; 0.4%): 6 mm
Stability: % Siloxane Surfactant Remaining ([4]; pH 5, 48 h): >95%
Stability: % Siloxane Surfactant Remaining ([4]; pH 5, 9 days): 99%
Stability: % Siloxane Surfactant Remaining ([4]; pH 7, 48 h): >95%
Stability: % Siloxane Surfactant Remaining ([4]; pH 9, 48 h): >95%

Compound: C[Si](C)(C)O[Si](C)(C)CCCOCCOCCOCCOCCOCCOCCOCCOCCOCCOCCOCCO [Comparative C, reference compound]
Surface Tension [1]: 24.1 mN/m
Spread Diameter ([2]; 0.1%): 6 mm
Spread Diameter ([2]; 0.2%): 8 mm
Spread Diameter ([2]; 0.4%): 9 mm

Compound: C[Si](C)(C)CC[Si](C)(C)O[Si](C)(C)CCCOCCOCCOCCOCCOCCOCCOCCOCCOCCOCCOCCO [Product 11]
Surface Tension [1]: 24.5 mN/m
Stability: % Siloxane Surfactant Remaining ([3]; pH 4, 3 wk, Stock Solution 2.5 wt %): 79%
Stability: % Siloxane Surfactant Remaining ([3]; pH 4, 6 wk, Stock Solution 2.5 wt %): 56%
Stability: % Siloxane Surfactant Remaining ([3]; pH 4, 11 wk, Stock Solution 2.5 wt %): 10%
Stability: % Siloxane Surfactant Remaining ([3]; pH 4, 96 h, Stock Solution 2.5 wt %): 100%
Stability: % Siloxane Surfactant Remaining ([3]; pH 5, 3 wk, Stock Solution 2.5 wt %): 100%
Stability: % Siloxane Surfactant Remaining ([3]; pH 5, 6 wk, Stock Solution 2.5 wt %): 100%
Stability: % Siloxane Surfactant Remaining ([3]; pH 5, 11 wk, Stock Solution 2.5 wt %): 100%
Stability: % Siloxane Surfactant Remaining ([3]; pH 5, 96 h, Stock Solution 2.5 wt %): 100%
Stability: % Siloxane Surfactant Remaining ([3]; pH 7, 3 wk, Stock Solution 2.5 wt %): 100%
Stability: % Siloxane Surfactant Remaining ([3]; pH 7, 6 wk, Stock Solution 2.5 wt %): 100%
Stability: % Siloxane Surfactant Remaining ([3]; pH 7, 11 wk, Stock Solution 2.5 wt %): 100%
Stability: % Siloxane Surfactant Remaining ([3]; pH 7, 96 h, Stock Solution 2.5 wt %): 100%
Stability: % Siloxane Surfactant Remaining ([3]; pH 9, 3 wk, Stock Solution 2.5 wt %): 100%
Stability: % Siloxane Surfactant Remaining ([3]; pH 9, 6 wk, Stock Solution 2.5 wt %): 100%
Stability: % Siloxane Surfactant Remaining ([3]; pH 9, 11 wk, Stock Solution 2.5 wt %): 100%
Stability: % Siloxane Surfactant Remaining ([3]; pH 9, 96 h, Stock Solution 2.5 wt %): 100%
Stability: % Siloxane Surfactant Remaining ([3]; pH 10, 3 wk, Stock Solution 2.5 wt %): 100%
Stability: % Siloxane Surfactant Remaining ([3]; pH 10, 6 wk, Stock Solution 2.5 wt %): 100%
Stability: % Siloxane Surfactant Remaining ([3]; pH 10, 11 wk, Stock Solution 2.5 wt %): 100%
Stability: % Siloxane Surfactant Remaining ([3]; pH 10, 96 h, Stock Solution 2.5 wt %): 100%
Spreading Diameter ([5]; pH 4, 0 h): 16 mm
Spreading Diameter ([5]; pH 4, 1 mo): 10 mm
Spreading Diameter ([5]; pH 4, 1 wk): 8 mm
Spreading Diameter ([5]; pH 4, 2 wk): 8 mm
Spreading Diameter ([5]; pH 4, 3 wk): 12 mm
Spreading Diameter ([5]; pH 4, 1 h): 23 mm
Spreading Diameter ([5]; pH 4, 4 h): 23 mm
Spreading Diameter ([5]; pH 4, 24 h): 44 mm
Spreading Diameter ([5]; pH 4, 48 h): 38 mm
Spreading Diameter ([5]; pH 4, 72 h): 28 mm
Spreading Diameter ([5]; pH 5, 0 h): 26 mm
Spreading Diameter ([5]; pH 5, 1 mo): 42 mm
Spreading Diameter ([5]; pH 5, 1 wk): 29 mm
Spreading Diameter ([5]; pH 5, 2 wk): 33 mm
Spreading Diameter ([5]; pH 5, 3 wk): 33 mm
Spreading Diameter ([5]; pH 5, 1 h): 23 mm
Spreading Diameter ([5]; pH 5, 24 h): 24 mm
Spreading Diameter ([5]; pH 5, 48 h): 32 mm
Spreading Diameter ([5]; pH 5, 72 h): 35 mm
Spread Diameter ([2]; 0.1%): 20 mm
Spread Diameter ([2]; 0.2%): 21 mm
Spread Diameter ([2]; 0.4%): 32 mm

Compound: CC(C)(C)CC(C)(C)c1ccc(OCCOCCOCCOCCOCCOCCOCCOCCOCCOCCO)cc1 [OPE, Octylphenolethoxylate]
Surface Tension [1]: 31.8 mN/m
Spread Diameter ([2]; 0.4%): 10 mm

Results, then the compound that gave them:

Surface Tension ([1]; listed as 7): 23.9 mN/m
Spread Diameter ([2]; 0.1%, listed as 7): 14 mm
Spread Diameter ([2]; 0.2%, listed as 7): 15 mm
Spread Diameter ([2]; 0.4%, listed as 7): 25 mm
Compound: CC(C)C[Si](C)(C)O[Si](C)(C)CCCOCCOCCOCCOCCOCCOCCOCCOCCOCCOCCOCCO [Product 7]

Surface Tension ([1]; listed as 4): 24.1 mN/m
Spread Diameter ([2]; 0.1%, listed as 4): 8 mm
Spread Diameter ([2]; 0.2%, listed as 4): 9 mm
Spread Diameter ([2]; 0.4%, listed as 4): 10 mm
Compound: CC(C)C[Si](C)(C)O[Si](C)(C)CCCOCCOCCOCCOCCOCCOCCOCCOCCOCCOCCOCCO [Product 4]
